Tests used:
[1] = test system: NF-κB; details: Yang et al. FEBS letters 1995, 361, 89-96; cited from earlier work
[2] = test system: SP1/oligonucleotide; assay: Negative control of the screening system: strand exchange of a nucleic acid set that does not bind to NF-κB (Example 5); details: 0 to 5 nmol aurothioglucose, duplexes 05C/08 and 06B/07 as negative control, same reaction (FIG. 9)
From the text: A synthetic oligonucleotide SP1-08 and a synthetic oligonucleotide SP1-05-5C3 labeled at the 5′ terminus with Cy3, or a synthetic oligonucleotide SP1-07 and a synthetic oligonucleotide SP1-06-3B1 labeled at the 3′ terminus with BHQ1 were mixed to prepare duplexes 05C/08 and 06B/07 having a single-stranded terminus under the same conditions as in Example 1. The duplexes 05C/08 and 06B/07 have an SP1 binding sequence.
(§1) To a mixed solution of 31F/42 and 05C/08 (50 fmol each), 0 to 5 nmol of aurothioglucose and 0.5 pmol of recombinant human NFκB p50 (Promega Corp.) were added, and further a mixed solution of 32D/41 and 06B/07 (200 fmol each) was added. The resulting solution was mixed and reacted at 25° C. for 30 minutes. […] The fluorescence values of fluorescein and Cy3 were measured using a fluorescence plate reader Ultra (Tecan Group Ltd.). The fluorescein was excited at 485 nm, and its fluorescence was measured at 535 nm. The Cy3 was excited at 535 nm and its fluorescence was measured at 595 nm.

[3] = target: T1, recombinant human NFκB p50 (Homo sapiens, UniProt P19838); assay: Detection of NF-κB (p50) inhibitory effect of aurothioglucose (Example 5); format: binding; details: 0 to 5 nmol aurothioglucose, 0.5 pmol NFκB p50, duplexes 31F/42 and 32D/41, 25° C. 30 minutes, relative to absence of aurothioglucose (FIG. 9)
T1 construct: recombinant human NFκB p50 (Promega Corp.); purchased Promega Corp
T1 sequence (P19838 1-433 limits assumed): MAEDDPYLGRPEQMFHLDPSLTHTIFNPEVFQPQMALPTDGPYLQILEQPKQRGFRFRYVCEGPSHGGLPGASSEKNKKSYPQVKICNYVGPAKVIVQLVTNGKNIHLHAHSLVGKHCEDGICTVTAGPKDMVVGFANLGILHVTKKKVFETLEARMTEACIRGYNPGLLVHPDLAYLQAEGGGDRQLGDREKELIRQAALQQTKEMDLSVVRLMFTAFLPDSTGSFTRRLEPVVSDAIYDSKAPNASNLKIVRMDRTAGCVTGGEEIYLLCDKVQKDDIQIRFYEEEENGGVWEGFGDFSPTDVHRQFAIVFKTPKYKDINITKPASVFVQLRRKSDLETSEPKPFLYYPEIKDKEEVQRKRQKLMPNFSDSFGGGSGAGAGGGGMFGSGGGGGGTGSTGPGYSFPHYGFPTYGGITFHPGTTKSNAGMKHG
From the text: A synthetic oligonucleotide NFkB-42 and a synthetic oligonucleotide NFkB-31-5F labeled at the 5′ terminus with fluorescein, or a synthetic oligonucleotide NFkB-41 and a synthetic oligonucleotide NFkB-32-3D labeled at the 3′ terminus with DABCYL were mixed to prepare duplexes 31F/42 and 32D/41 having a single-stranded terminus under the same conditions as in Example 1. The duplexes 31F/42 and 32D/41 have an NF-κB binding sequence.
as §1

[4] = target: T2, recombinant human SP1 (Homo sapiens, UniProt P08047); assay: Effect of mismatch introduction on suppression of strand exchange, SP1 (Example 4-1); format: binding; details: 40 fmol SP05C/08B, 2.5 pmol SP1, 80 fmol of the added duplex or single strand, 25° C. 120 minutes (FIG. 7)
T2 construct: purchased Promega Corp
From the text: A synthetic oligonucleotide SP1-05-5C3 labeled at the 5′ terminus with Cy3 and a synthetic oligonucleotide SP1-08-3B1 labeled at the 3′ terminus with BHQ1 were mixed to prepare a duplex SP05C/08B having a single-stranded terminus under the same conditions as in Example 1. Moreover, synthetic oligonucleotides SP1-06 and SP1-07, synthetic oligonucleotides SP1-21 and SP1-22, or synthetic oligonucleotides SP1-23 and SP1-24 were mixed to prepare duplexes SP06/07, SP22/21, and SP24/23 having a single-stranded terminus under the same conditions as in Example 1. These duplexes have an SP1 binding sequence.
40 fmol of SP05C/08B and 2.5 pmol of recombinant human SP1 (Promega Corp.) were mixed into a reaction solution (10 mM HEPES-NaOH pH 7.9, 50 mM KCl, 0.1 mM EDTA, 5 mM DTT, 10% glycerol, 0.05% IGEPAL CA-630, 15 μL) and reacted at 25° C. for 30 minutes. 80 fmol of SP06/07, SP22/21, SP24/23, SP1-07, SP1-21, or SP1-23 was added thereto, and […] of the resulting mixture was then reacted at 25° C. for 120 minutes. The fluorescence value of Cy3 was measured using a fluorescence plate reader Ultra (Tecan Group Ltd.).

T2 sequence (P08047 whole entry): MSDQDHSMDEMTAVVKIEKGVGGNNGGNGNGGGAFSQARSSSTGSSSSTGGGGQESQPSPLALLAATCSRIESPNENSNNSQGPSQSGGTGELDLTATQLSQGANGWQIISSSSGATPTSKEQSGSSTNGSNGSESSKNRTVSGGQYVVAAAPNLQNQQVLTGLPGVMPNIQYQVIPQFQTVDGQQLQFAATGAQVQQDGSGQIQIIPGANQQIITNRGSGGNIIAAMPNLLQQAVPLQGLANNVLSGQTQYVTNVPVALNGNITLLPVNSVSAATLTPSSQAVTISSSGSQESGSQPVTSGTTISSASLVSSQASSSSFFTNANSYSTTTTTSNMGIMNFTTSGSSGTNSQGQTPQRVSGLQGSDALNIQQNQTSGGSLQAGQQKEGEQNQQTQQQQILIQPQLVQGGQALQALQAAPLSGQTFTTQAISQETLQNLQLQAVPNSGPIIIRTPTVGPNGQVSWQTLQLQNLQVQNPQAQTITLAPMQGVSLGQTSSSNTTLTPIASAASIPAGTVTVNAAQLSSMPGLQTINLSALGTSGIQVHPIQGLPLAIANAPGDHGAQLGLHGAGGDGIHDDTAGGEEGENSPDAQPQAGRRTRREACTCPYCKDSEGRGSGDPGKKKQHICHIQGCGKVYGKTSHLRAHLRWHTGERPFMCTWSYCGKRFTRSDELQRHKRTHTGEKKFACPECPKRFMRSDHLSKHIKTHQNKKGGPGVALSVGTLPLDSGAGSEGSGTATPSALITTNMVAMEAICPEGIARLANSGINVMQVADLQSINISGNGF

Row | Compound | inhibition of NF-κB [1] | relative fluorescence value of the SP1/oligonucleotide [2] | relative fluorescence value of the NF-κB/oligonucleotide complex [3] | effect of addition of SP1 on increase in fluorescence value (Cy3) caused by strand exchange [4]
1 | OC[C@H]1O[C@H]([S-])[C@H](O)[C@@H](O)[C@@H]1O.[Au+] [aurothioglucose, Aurothioglucose] | known to inhibit NF-κB | hardly influenced | decreased depending on the concentration of aurothioglucose | 
2 | SP1-07: synthetic oligonucleotide 5′ ATTCGATCGGGGCGGGGCGACGAGC AGGCTACTCTCTGACCG 3′ (SEQ ID NO: 31) (DNA ATTCGATCGGGGCGGGGCGACGAGCAGGCTACTCTCTGACCG; DNA, backbone and methylation of C not given here) |  |  |  | suppressed increase in fluorescence value

Source: patent publication US20170044597A1, “ASSAY METHOD AND KIT FOR NUCLEIC ACID BINDING PROTEIN” (Hiroshima University, priority 2008, published 2017)
